EP0318860B1, “Substituted alkylamine derivatives” (BANYU PHARMACEUTICAL CO., LTD., priority 1987, dated 1989)
Values after ≈ are worked out from the molar mass of the structure shown. Counter-ions that a name gives are not always drawn. Like-named read-outs stand apart in the source and are kept apart here.

Tests used:
rat squalene epoxidase = target: T1, rat squalene epoxidase (Rattus norvegicus, UniProt P52020); test: Squalene epoxidase inhibiting activity (3H-squalene to squalene-2,3-epoxide, solubilized liver microsome fraction); assay type: biochemical; conditions: 8 µM 3H-squalene, 37 °C, 30 minutes, read-out: 50 % inhibitory concentration (IC50)
T1 construct: Livers were extracted and homogenized; from tissue; host or cells: liver of SD-strain female rats; microsomes solubilized with 2 % Triton X-100, 105000 x g supernatant
Procedure: The rat squalene epoxidase was prepared by the method described in J. Biol. Chem., vol.
SD-strain female rats were killed by exsanguination. Livers were extracted and homogenized with in the presence of 2 volumes of 0.1M Tris-HCl buffer (pH 7.5). The homogenate was centrifuged at 9750 Xg for 10 minutes. The supernatant fraction was further centrifuged at 105000 Xg for 1 hour. The sediment was washed with 0.1M Tris-HCl buffer (pH 7.5), and then centrifuged at 105000 Xg for 1 hour. The microsomes obtained were suspended in 0.1M Tris-HCl buffer (pH 7.5) so that the amount of proteins was 40 mg/ml, and under ice cooling, the suspension was stirred in the presence of 2 % Triton X-100 to solubilize the enzyme. After the solubilization, the solution was diluted to a Triton X-100 concentration of 0.5 % with 1 mM EDTA and 1 mM dithiothreitol, and centrifuged at 105000 Xg for 1 hour. The resulting supernatant fraction was used in the following test as a squalene epoxidase fraction.
The squalene epoxidase activity was assayed in accordance with the method described in J. Biol. Chem., vol.
Three microliters of a dimethyl sulfoxide solution of a test drug was added to a solution composed of 0.2 ml of the squalene epoxidase fraction prepared in (1) [proteins 0.4 mg, 0.5 % Triton X-100, […] Tris-HCl buffer (pH 7.5)], 100 µM FAD, 1 mM NADPH, 1 mM EDTA and 8 µM ³H-squalene-Tween 80 emulsion to adjust the total amount of the solution to 0.3 ml. The solution was incubated at 37 °C for 30 minutes with shaking. Then, 0.3 ml of a 10 % methanolic potassium hydroxide was added to stop the reaction, and the reaction mixture was left to stand at room temperature for 1 hour. The non-saponified material was extracted with petroleum ether, and the solvent was evaporated under a nitrogen stream. […] The position of the resulting ³H-squalene-2,3-epoxide on TLC was determined using ergosterol acetate as a marker, and the ³H-squalene-2,3-epoxide portion on the TLC was cut off. The TLC strip was immersed in a toluene-type scintillator, and measured by a liquid scintillation counter.

[1] = tested on: cholesterol biosynthesis in the cultured Hep-G2 cells; test: Inhibitory activity on cholesterol biosynthesis in cultured cells ([14C] acetate incorporation); assay type: cell-based; conditions: HepG2; Human hepatoma (Hep-G2) cells, [14C] sodium acetate, 6 hours; read-out: 50% inhibitory concentration (IC₅₀)
Procedure: Human hepatoma (Hep-G2) cells were cultured in 10 cm² dishes until they formed a monolayer. One milliliter of the culture medium was replaced, and 1 µCi of [¹⁴C] sodium acetate and 1 microliter of a dimethyl sulfoxide solution of a test drug were added, and the cells were cultured at 37 °C in air containing 5 % of carbon dioxide for 6 hours.
After the cultivation, the medium was aspirated, and the cells were cooled with ice, and washed with Dulbecco's phosphate buffered saline solution. The resulting cells were scraped by a rubber policeman, and collected by centrifugation. The cells collected were dissolved in 400 microliters of 0.3N sodium hydroxide. A 200 microliters aliquot of the solution was used for extraction, and the remainder, for protein determination.
To 200 microliters of the extracted cells, 15 % ethanolic potassium hydroxide was added, and saponification was carried out at 75 °C for 1 hour. Water (1 ml) was then added, and the mixture was extracted with 2 ml of petroleum ether twice to remove non-saponified materials. The petroleum ether extracts were washed with 1 ml of water, and evaporated under a nitrogen stream. The residue was spotted on a pre-coated silica gel TLC plate using a small amount of chloroform, and developed with hexane/ethyl ether/acetic acid (85:15:4). Cholesterol and squalene portions on the TLC were detected with iodine, and the corresponding TLC portions were cut out. The TLC strips were immersed in a toluene-type scintillator, and radioactivity was counted by a liquid scintillation counter. The results were corrected by the amount of proteins measured by the method described in J. Biol. Chem., vol. 193, page 265, 1951. The 50 % inhibitory concentration (IC₅₀ value) of the compound of the invention on cholesterol biosynthesis in the cultured Hep-G2 cells was calculated.

Candida albicans = test: Antimycotic activity test (Sabouraud's agar dilution, MIC); assay type: cell-based; conditions: 48 h
Procedure: (§1) Each of the test fungi was cultured (Candida albicans was cultured overnight in Sabouraud broth; Trichophyton was inoculated in Sabouraud's agar and cultured for 2 days, after which the spores were harvested). Thereafter, one platinum loopful of Candida albicans or Trichophyton (10⁶ cells/ml for C. albicans; 10⁶ spores/ml for Trichophyton) was inoculated in Sabouraud's agar containing the test drug in various concentrations, and cultured (at 37 °C for 2 days for C. albicans; at 28 °C for 5 days for Trichophyton). Then, the minimum growth inhibition concentration (MIC) was measured. […]

Trichophyton = test: as above; assay type: cell-based; conditions: 120 h
Procedure: as §1

cholesterol biosynthesis = test: Test on inhibition of cholesterol biosynthesis in vivo ([14C] acetate, plasma 14C-cholesterol); conditions: male SD rats, 100 mg/kg orally; for ¹⁴C-cholesterol: dpm of 14C-cholesterol present in 1 ml of the plasma; for Inhibition of cholesterol biosynthesis: test group compared with control group
Procedure: Male SD rats, 5 weeks of age, were used in the in vivo test. The rats were kept for 9 days in an environment of reversed light cycle (i.e., dark between 6:00 am and 6:00 pm). The rats were allowed to take a solid diet and water freely. The test drug was orally administered two hours before dark sixth hour when the cholesterol synthesis reached a maximum. Compounds 6 and 44 were administered as a suspension in a 0.5 % aqueous solution of methyl cellulose. Compound 45 was administered in a 0.5 % aqueous solution of methyl cellulose containing 5 % of dimethyl sulfoxide and 1 % Tween 80. The dose was 1 ml/100 g of body weight.
An equal volume of 0.5 % methyl cellulose was administered to a control group. One hour after administration of the test drug, [¹⁴C] sodium acetate (56 mCi/mmole) was intraperitoneally administered to the rats in a dose of 20 µCi/100 g of body weight. At dark sixth hour, a blood sample was obtained from the abdominal artery under ether anesthesia, and the plasma was separated by centrifugation.
Two milliliters of plasma was mixed with a 15 % methanolic potassium hydroxide and saponified by heating at 75 °C for 3 hours. The resulting sample was extracted with 2 ml of petroleum ether twice. The extracts were washed with 2 ml of distilled water, and finally evaporated under a nitrogen stream. The resulting residue was dissolved in a small amount of ethyl ether, and all the solution was spotted on a pre-coated silica gel TLC plate. The plate was developed with a solvent system composed of hexane/ethyl ether/acetic acid (85:15:4). Color formation was carried out by iodine, and the radioactivity of the cholesterol portion was measured by a liquid scintillation counter.
The results were expressed in dpm of the resulting ¹⁴C-cholesterol present in 1 ml of the plasma. The inhibition of cholesterol biosynthesis was calculated by comparing the amounts of ¹⁴C-cholesterol biosynthesized in the test group and that in the control group.

[2] = C. albicans, 37 °C for 2 days, read-out: MIC
[3] = 28 °C for 5 days, read-out: MIC

T1 sequence (P52020 whole entry): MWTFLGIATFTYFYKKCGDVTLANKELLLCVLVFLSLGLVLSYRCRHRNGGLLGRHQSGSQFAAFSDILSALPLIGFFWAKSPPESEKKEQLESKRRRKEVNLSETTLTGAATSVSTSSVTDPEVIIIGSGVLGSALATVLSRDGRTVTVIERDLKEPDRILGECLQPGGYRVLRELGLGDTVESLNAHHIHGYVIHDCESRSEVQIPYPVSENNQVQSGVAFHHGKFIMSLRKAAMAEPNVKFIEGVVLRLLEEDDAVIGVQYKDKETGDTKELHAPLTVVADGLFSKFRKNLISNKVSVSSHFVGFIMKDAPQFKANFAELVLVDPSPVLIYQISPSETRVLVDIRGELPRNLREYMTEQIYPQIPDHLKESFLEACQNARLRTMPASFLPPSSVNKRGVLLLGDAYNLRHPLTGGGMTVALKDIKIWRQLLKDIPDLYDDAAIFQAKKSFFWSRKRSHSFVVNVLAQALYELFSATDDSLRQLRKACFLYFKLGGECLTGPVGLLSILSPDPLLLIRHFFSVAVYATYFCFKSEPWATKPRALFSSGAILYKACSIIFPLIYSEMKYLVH

| MIC (Candida albicans; [2]) | MIC (Trichophyton; [3]) | SMILES | IC50 (rat squalene epoxidase) | IC50 [1] | ¹⁴C-cholesterol (cholesterol biosynthesis) | Inhibition of cholesterol biosynthesis (cholesterol biosynthesis) | MIC (Candida albicans) | MIC (Trichophyton) |
| --- | --- | --- | --- | --- | --- | --- | --- | --- |
| > 100 µg/mL | > 100 µg/mL | CN(C/C=C/C#CC(C)(C)C)Cc1cccc(OCc2ccccc2)c1.Cl [Compound 2, (E)-N-(6,6-dimethyl-2-hepten-4-ynyl)-N-methyl-3-benzyloxybenzylamine hydrochloride] | 1400 nM | 1500 nM |  |  |  |  |
|  |  | Cc1ccccc1COc1cccc(CN(C)C/C=C/C#CC(C)(C)C)c1.Cl [Compound 6, (E)-N-(6,6-dimethyl-2-hepten-4-ynyl)-N-methyl-3-(2-methylbenzyloxy)benzylamine hydrochloride] | 560 nM | 340 nM | 862±387 dpm | 53% |  |  |
| > 100 µg/mL | > 100 µg/mL | CN(C/C=C/C#CC(C)(C)C)Cc1cccc(OCc2cccc3ccccc23)c1 [Compound 18, (E)-N-(6,6-dimethyl-2-hepten-4-ynyl)-N-methyl-3-(1-naphthylmethyloxy)benzylamine] | 250 nM |  |  |  |  |  |
|  |  | CCCN(C/C=C/C#CC(C)(C)C)Cc1cccc(OCc2ccccc2)c1 [Compound 37, (E)-N-(6,6-dimethyl-2-hepten-4-ynyl)-N-propyl-3-benzyloxybenzylamine] | 270 nM | 85 nM |  |  |  |  |
|  |  | CCN(C/C=C/C#CC(C)(C)C)Cc1cccc(OCc2ccccc2C)c1.Cl [Compound 44, (E)-N-(6,6-dimethyl-2-hepten-4-ynyl)-N-ethyl-3-(2-methylbenzyloxy)benzylamine hydrochloride] | 160 nM | 50 nM | 568±313 dpm | 69% |  |  |
| > 100 µg/mL | > 100 µg/mL | CCCN(C/C=C/C#CC(C)(C)C)Cc1cccc(OCc2ccccc2C)c1.Cl [Compound 45, (E)-N-(6,6-dimethyl-2-hepten-4-ynyl)-N-propyl-3-(2-methylbenzyloxy)benzylamine hydrochloride] | 120 nM | 83 nM | 274±155 dpm | 85% |  |  |
|  |  | CCN(C/C=C/C#CC(C)(C)C)Cc1cccc(OCc2cccc(C#N)c2)c1 [Compound 46, (E)-N-(6,6-dimethyl-2-hepten-4-ynyl)-N-ethyl-3-(3-cyanobenzyloxy)benzylamine] | 150 nM | 110 nM |  |  |  |  |
|  |  | CCCN(C/C=C/C#CC(C)(C)C)Cc1cccc(OCc2cccc(C#N)c2)c1 [Compound 47, (E)-N-(6,6-dimethyl-2-hepten-4-ynyl)-N-propyl-3-(3-cyanobenzyloxy)benzylamine hydrochloride] | 150 nM | 90 nM |  |  |  |  |
| > 100 µg/mL | > 100 µg/mL | CC(C)=CCOc1cccc(CN(C)C/C=C/C#CC(C)(C)C)c1 [Compound 61, (E)-N-(6,6-dimethyl-2-hepten-4-ynyl)-N-methyl-3-(3-methyl-2-butenyloxy)benzylamine] | 6100 nM |  |  |  |  |  |
| > 100 µg/mL | > 100 µg/mL | CN(C/C=C/C#CC(C)(C)C)Cc1cccc(OCc2cccc(C#N)c2)c1.Cl [Compound 64, (E)-N-(6,6-dimethyl-2-hepten-4-ynyl)-N-methyl-3-(3-cyanobenzyloxy)benzylamine hydrochloride] | 510 nM | 120 nM |  |  |  |  |
|  |  | CN(C/C=C/C#CC(C)(C)C)Cc1cccc(OCc2cccc(-c3cnco3)c2)c1 [Compound 78, (E)-N-(6,6-dimethyl-2-hepten-4-ynyl)-N-methyl-3-[3-(5-oxazolyl)benzyloxy]benzylamine] | 63 nM | 20 nM |  |  |  |  |
|  |  | CN(C/C=C/C#CC(C)(C)C)Cc1cccc(OCc2cccc(-c3cncs3)c2)c1 [Compound 79, (E)-N-(6,6-dimethyl-2-hepten-4-ynyl)-N-methyl-3-[3-(5-thiazolyl)benzyloxy]benzylamine] | 89 nM | 23 nM |  |  |  |  |
| > 100 µg/mL | > 100 µg/mL | CN(C/C=C/C#CC(C)(C)C)Cc1cccc(/C=C/c2ccccc2)c1.Cl [Compound 97, N-[(E)-6,6-dimethyl-2-hepten-4-ynyl]-N-methyl-3-[(E)-styryl]benzylamine hydrochloride] | 320 nM |  |  |  |  |  |
|  |  | Cc1ccccc1CNc1cccc(CN(C)C/C=C/C#CC(C)(C)C)c1 [Compound 103, (E)-N-(6,6-dimethyl-2-hepten-4-ynyl)-N-methyl-3-(2-methylbenzylamino)benzylamine hydrochloride] | 360 nM | 450 nM |  |  |  |  |
| > 100 µg/mL | > 100 µg/mL | CN(C/C=C/C#CC(C)(C)C)Cc1cccc(CCc2ccccc2)c1 [Compound 107, (E)-N-(6,6-dimethyl-2-hepten-4-ynyl)-N-methyl-3-(beta-phenethyl)benzylamine] | 3600 nM |  |  |  |  |  |
| > 100 µg/mL | > 100 µg/mL | CN(C/C=C/C#CC(C)(C)C)Cc1cc(OCc2ccccc2)ccn1.Cl.Cl [Compound 110, (E)-N-(6,6-dimethyl-2-hepten-4-ynyl)-N-methyl-4-benzyloxy-2-pyridylmethylamine dihydrochloride] | 1500 nM |  |  |  |  |  |
|  |  | CN(C/C=C/C#CC(C)(C)C)Cc1cccc2ccccc12 [terbinafine, reference compound] | > 100000 nM |  |  |  | 0.3 µg/mL (≈ 1.03 µM) | < 0.01 µg/mL |
